This is an account of results in US9896445B2, “Heterocyclic inhibitors of ERK1 and ERK2 and their use in the treatment of cancer” (Asana Biosciences, LLC, priority 2015, dated 2018).

One test deals with T1, ERK2 (Homo sapiens, UniProt P28482).
T1 construct: purchased Jubilant Biosys
The test is described as follows: ERK2 HTRF (biochemical) assay. To be noted: HTRF. The procedure, abridged:
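Compounds were tested as half-log dilutions from 0.0005 to 10 uM in Tris pH 7.5/MgCl2 buffer, with a substrate mix of 1 uM biotin-MBP peptide and 24 uM ATP and an enzyme mix of 25 nM ERK2. Reaction ran 60 min at room temperature. Phospho-MBP was detected by HTRF (Eu-anti-phospho-MBP/SA-APC, 665/620 nm), and IC50 was fitted with a variable-slope sigmoidal curve.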
Background: In TR-FRET formats the signal depends on donor and acceptor labels being close together.

The next test has as its target T2, ERK1 (Homo sapiens, UniProt P27361).
T2 construct: purchased Jubilant Biosys
Put plainly: ERK1 HTRF (biochemical) assay. The conditions noted are these: HTRF. As to the method: ERK1 and ERK2 HTRF (Biochemical) Assays
These assays employed a homogeneous time resolved fluorescence (HTRF) technique. […] The plate was incubated at room temperature for 60 min with shaking. […] The IC50 values (half maximal inhibitory concentration values) were subsequently determined using a sigmoidal dose-response curve (variable slope) in GraphPad Prism® 5 software.

Usually pIC50 stands for −log10 of the IC50, conventionally taken in molar units. A lower pIC50 goes with a high IC50.

pIC50: −log10 of the molar value.

T1 sequence (P28482 whole entry): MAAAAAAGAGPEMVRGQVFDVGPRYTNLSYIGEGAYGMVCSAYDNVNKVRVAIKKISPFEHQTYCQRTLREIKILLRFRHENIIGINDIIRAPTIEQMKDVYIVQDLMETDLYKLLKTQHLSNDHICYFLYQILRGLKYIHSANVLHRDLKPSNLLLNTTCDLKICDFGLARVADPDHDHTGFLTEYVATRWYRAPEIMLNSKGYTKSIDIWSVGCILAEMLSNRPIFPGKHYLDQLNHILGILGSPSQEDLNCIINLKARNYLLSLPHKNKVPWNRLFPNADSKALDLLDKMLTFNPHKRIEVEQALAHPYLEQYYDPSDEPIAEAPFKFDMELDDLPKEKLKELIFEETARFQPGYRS
T2 sequence (P27361 whole entry): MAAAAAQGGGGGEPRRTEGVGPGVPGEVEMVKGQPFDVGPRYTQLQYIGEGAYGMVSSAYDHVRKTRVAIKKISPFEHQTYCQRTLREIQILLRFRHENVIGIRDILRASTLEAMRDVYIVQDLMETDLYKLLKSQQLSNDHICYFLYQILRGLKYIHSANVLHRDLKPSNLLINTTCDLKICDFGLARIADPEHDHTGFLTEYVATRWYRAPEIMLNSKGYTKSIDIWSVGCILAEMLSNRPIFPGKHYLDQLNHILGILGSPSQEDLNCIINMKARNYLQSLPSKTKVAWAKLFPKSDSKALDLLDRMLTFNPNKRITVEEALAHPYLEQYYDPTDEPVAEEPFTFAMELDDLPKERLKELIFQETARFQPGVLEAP

Take `CC[C@@H](CO)Nc1ncc(C)c(-n2ccc(C(=O)NC(CO)c3ccccc3)c2)n1` (stereo partly drawn) [Compound 75, N-(2-hydroxy-1-phenylethyl)-1-(2-(((S)-1-hydroxy-butan-2-yl)amino)-5-methylpyrimidin-4-yl)-1H-pyrrole-3-carboxamide]: the negative logarithm of the IC50 (pIC50) on ERK2 was no less than 7.30; against ERK1, greater than 7.30.
With `O=C(NC(CO)c1ccccc1)c1ccn(-c2ccnc(Nc3ccc4c(c3)OCO4)c2)c1` (stereo not drawn) [Compound 76, 1-(2-(benzo[d][1,3]dioxol-5-ylamino)pyridin-4-yl)-N-(2-hydroxy-1-phenylethyl)-1H-pyrrole-3-carboxamide], the pIC50 against ERK2 is no less than 7.30; at ERK1, greater than 7.30.
For `Cc1cnc(Nc2ccc(F)cc2Cl)cc1-n1ccc(C(=O)NC(CO)c2ccccc2)c1` (stereo not drawn) [Compound 78, 1-(2-((2-chloro-4-fluorophenyl)amino)-5-methylpyridin-4-yl)-N-(2-hydroxy-1-phenylethyl)-1H-pyrrole-3-carboxamide], in that order: no less than 7.30 and greater than 7.30.
For `Cc1cnc(Nc2ccc3occc3c2)cc1-n1ccc(C(=O)NC(CO)c2ccccc2)c1` (stereo not drawn) [Compound 79, 1-(2-(benzofuran-5-ylamino)-5-methylpyridin-4-yl)-N-(2-hydroxy-1-phenylethyl)-1H-pyrrole-3-carboxamide], in that order: no less than 7.30 and 6.30 to 7.00.
For `Cc1cnc(Nc2ccc3c(c2)OC(F)(F)O3)cc1-n1ccc(C(=O)NC(CO)c2ccccc2)c1` (stereo not drawn) [Compound 80, 1-(2-((2,2-difluorobenzo[d] [1,3]dioxol-5-yl)-amino)-5-methyl-pyridin-4-yl)-N-(2-hydroxy-1-phenyl-ethyl)-1H-pyrrole-3-carboxamide], in that order: no less than 7.30 and greater than 7.30.
For `Cc1cnc(Nc2cccnc2)cc1-n1ccc(C(=O)NC(CO)c2ccccc2)c1` (stereo not drawn) [Compound 81, N-(2-hydroxy-1-phenylethyl)-1-(5-methyl-2-(pyridin-3-ylamino)pyridin-4-yl)-1H-pyrrole-3-carboxamide], the values for the pIC50 at ERK2 and against ERK1 were no less than 7.30 and greater than 7.30, respectively.
For `O=C(NC(CO)c1ccccc1)c1ccn(-c2ccnc(Nc3ccc(F)cc3Cl)c2)c1` (stereo not drawn) [Compound 82, 1-(2-((2-chloro-4-fluorophenyl)amino)pyridin-4-yl)-N-(2-hydroxy-1-phenylethyl)-1H-pyrrole-3-carboxamide], in that order: no less than 7.30 and 7.00 to 7.30.
On the same counts, the results for `Cc1cnc(Nc2ccc(N3CCNCC3)cc2)cc1-n1ccc(C(=O)NC(CO)c2ccccc2)c1` (stereo not drawn) [Compound 83, N-(2-hydroxy-1-phenylethyl)-1-(5-methyl-2-((4-(piperazin-1-yl)-phenyl)amino)-pyridin-4-yl)-1H-pyrrole-3-carboxamide] are no less than 7.30 and 6.30 to 7.00.
For `O=C(NC(CO)c1ccccc1)c1ccn(-c2ccnc(Nc3ccc(F)cc3)c2)c1` (stereo not drawn) [Compound 84, 1-(2-((4-fluoro-phenyl)amino)pyridin-4-yl)-N-(2-hydroxy-1-phenyl-ethyl)-1H-pyrrole-3-carboxamide], in that order: no less than 7.30 and greater than 7.30.
Consider `Cc1cnc(Nc2ccc(F)cc2Cl)cc1-n1cnc(C(=O)NC(CO)c2ccccc2)c1` (stereo not drawn) [Compound 85, 1-(2-((2-chloro-4-fluorophenyl)amino)-5-methylpyridin-4-yl)-N-(2-hydroxy-1-phenylethyl)-1H-imidazole-4-carboxamide], for which the negative-log IC50 (pIC50) against ERK2 and at ERK1 was 6.30 to 7.00 throughout.
Consider `Cc1cnc(Nc2ccc3c(c2)OCO3)nc1-n1ccc(C(=O)N[C@H](CO)c2ccc(F)c(Cl)c2)c1` [Compound 87], for which the pIC50 on ERK2 was no less than 7.30; against ERK1, greater than 7.30.
Turning to `Cc1cnc(Nc2ccc3c(c2)OCO3)cc1-n1cnc(C(=O)NC(CO)c2cccc(Cl)c2)c1` (stereo not drawn) [Compound 88, 1-(2-(benzo[d][1,3]dioxol-5-ylamino)-5-methylpyridin-4-yl)-N-(1-(3-chloro-phenyl)-2-hydroxy-ethyl)-1H-imidazole-4-carboxamide], the pIC50 at ERK2 was no less than 7.30; at ERK1, greater than 7.30.
For `Cc1cnc(Nc2ccccc2)cc1-n1cnc(C(=O)NC(CO)c2ccccc2)c1` (stereo not drawn) [Compound 89, N-(2-hydroxy-1-phenylethyl)-1-(5-methyl-2-(phenyl-amino)pyridin-4-yl)-1H-imidazole-4-carboxamide], in that order: no less than 7.30 and 6.30 to 7.00.
On the same counts, the results for `Cc1cnc(Nc2ccc3c(c2)OC(F)(F)O3)cc1-n1cnc(C(=O)NC(CO)c2cccc(Cl)c2)c1` (stereo not drawn) [Compound 90, N-(1-(3-chlorophenyl)-2-hydroxyethyl)-1-(2-((2,2-difluoro-benzo[d][1,3]dioxol-5-yl)amino)-5-methylpyridin-4-yl)-1H-imidazole-4-carboxamide] are no less than 7.30 and 6.30 to 7.00.
For `Cc1cnc(Nc2ccc(F)cc2Cl)cc1-n1ccc(C(=O)NC(CO)c2cccc(Cl)c2)c1` (stereo not drawn) [Compound 91, 1-(2-((2-chloro-4-fluorophenyl)amino)-5-methylpyridin-4-yl)-N-(1-(3-chlorophenyl)-2-hydroxyethyl)-1H-pyrrole-3-carboxamide], in that order: no less than 7.30 and greater than 7.30.
Take `Cc1cnc(Nc2ccc3c(c2)OC(F)(F)O3)cc1-n1ccc(C(=O)NC(CO)c2cccc(Cl)c2)c1` (stereo not drawn) [Compound 92, N-(1-(3-chlorophenyl)-2-hydroxyethyl)-1-(2-((2,2-difluoro-benzo[d][1,3]dioxol-5-yl)amino)-5-methylpyridin-4-yl)-1H-pyrrole-3-carboxamide]: the negative-log IC50 (pIC50) is no less than 7.30 against ERK2 and greater than 7.30 at ERK1.
On the same counts, the results for `Cc1cnc(NC2CCOCC2)nc1-n1cnc(C(=O)NCc2cccc(Cl)c2CO)c1` [Compound 93, N-(3-chloro-2-(hydroxymethyl)benzyl)-1-(5-methyl-2-((tetrahydro-2H-pyran-4-yl)amino)pyrimidin-4-yl)-1H-imidazole-4-carboxamide] are no less than 7.30 and greater than 7.30.
For `Cc1cnc(NC2CCOCC2)nc1-n1cnc(C(=O)NCc2ccccc2CCO)c1` [Compound 94, N-(2-(2-hydroxyethyl)benzyl)-1-(5-methyl-2-((tetrahydro-2H-pyran-4-yl)amino)pyrimidin-4-yl)-1H-imidazole-4-carboxamide], in that order: no less than 7.30 and greater than 7.30.
For `Cc1cnc(Nc2ccc3c(c2)OC(C)(C)O3)nc1-n1ccc(C(=O)NC(CO)c2ccccc2)c1` (stereo not drawn) [Compound 95, 1-(2-((2,2-dimethylbenzo[d] [1,3]dioxol-5-yl)-amino)-5-methyl-pyrimidin-4-yl)-N-(2-hydroxy-1-phenylethyl)-1H-pyrrole-3-carboxamide], in that order: no less than 7.30 and 7.00 to 7.30.
For the molecule `Cc1cnc(Nc2ccc3c(c2)OC(C)(C)O3)nc1-n1ccc(C(=O)NC(CO)c2cccc(Cl)c2)c1` (stereo not drawn) [Compound 96, N-(1-(3-chloro-phenyl)-2-hydroxyethyl)-1-(2-((2,2-dimethyl-benzo[d][1,3]dioxol-5-yl)amino)-5-methylpyrimidin-4-yl)-1H-pyrrole-3-carboxamide], the negative logarithm of the IC50 (pIC50) against ERK2 was no less than 7.30; against ERK1, greater than 7.30.
For `Cc1cnc(Nc2ccc(F)cc2)cc1-n1ccc(C(=O)NC(CN)c2ccccc2)c1` (stereo not drawn) [Compound 98, N-(2-amino-1-phenylethyl)-1-(2-((4-fluorophenyl)-amino)-5-methyl-pyridin-4-yl)-1H-pyrrole-3-carboxamide], in that order: no less than 7.30 and greater than 7.30.
On the same counts, the results for `Cc1cnc(Nc2ccc3c(c2)OC(F)(F)O3)cc1-n1cnc(C(=O)NC(CN)Cc2ccccc2)c1` (stereo not drawn) [Compound 99, N-(1-amino-3-phenylpropan-2-yl)-1-(2-((2,2-difluorobenzo[d] [1,3]dioxol-5-yl)amino)-5-methylpyridin-4-yl)-1H-imidazole-4-carboxamide] are 6.30 to 7.00 and 6.30 to 7.00.
For `CC[C@@H](CO)Nc1cc(-n2ccc(C(=O)NC(CO)c3ccccc3)c2)c(C)cn1` (stereo partly drawn) [Compound 100, N-(2-hydroxy-1-phenylethyl)-1-(2-(((S)-1-hydroxy-butan-2-yl)amino)-5-methylpyridin-4-yl)-1H-pyrrole-3-carboxamide], in that order: no less than 7.30 and 7.00 to 7.30.
Turning to `Cc1cnc(Nc2cc3c(cc2Cl)OCO3)nc1-n1ccc(C(=O)NC(CO)c2cccc(Cl)c2)c1` (stereo not drawn) [Compound 101, 1-(2-((6-chloro-benzo[d][1,3]dioxol-5-yl)amino)-5-methylpyrimidin-4-yl)-N-(1-(3-chlorophenyl)-2-hydroxyethyl)-1H-pyrrole-3-carboxamide], the figures for the pIC50 at ERK2 and against ERK1 were no less than 7.30 and greater than 7.30, respectively.
For `Cc1cnc(Nc2ccc3c(c2)OCO3)nc1-n1ccc(C(=O)NC(CO)c2cccnc2)c1` (stereo not drawn) [Compound 103, 1-(2-(benzo[d][1,3]dioxol-5-ylamino)-5-methylpyrimidin-4-yl)-N-(2-hydroxy-1-(pyridin-3-yl)ethyl)-1H-pyrrole-3-carboxamide], in that order: no less than 7.30 and 6.30 to 7.00.
For `O=C(NC(CO)c1cccc(Cl)c1)c1cn(-c2cc(Nc3ccccc3)ncc2Cl)cn1` (stereo not drawn) [Compound 106, 1-(5-Chloro-2-(phenylamino)pyridin-4-yl)-N-(1-(3-chlorophenyl)-2-hydroxyethyl)-1H-imidazole-4-carboxamide], in that order: no less than 7.30 and greater than 7.30.
For `Cc1cn(-c2nc(Nc3ccc(F)cc3)ncc2C)cc1C(=O)NC(CO)c1cccc(Cl)c1` (stereo not drawn) [Compound 107, N-(1-(3-chlorophenyl)-2-hydroxyethyl)-1-(2-((4-fluoro-phenyl)amino)-5-methylpyrimidin-4-yl)-4-methyl-1H-pyrrole-3-carboxamide], the figures for the pIC50 at ERK2 and at ERK1 were no less than 7.30 and greater than 7.30, respectively.
